# Assay results taken from US6204220A, “Substituted 2-oxo-3-alkynoic acids and methods of use thereof” (Rutgers, The State University of New Jersey, priority 1999, dated 2001).
# “Also recorded” adds a separate entry of the source. Where two headings read alike, the source gives them in different places.
# Key:
# [1] = molecular target: T1, resolved E1 (Escherichia coli, UniProt P0AFG8); experiment: Inactivation of resolved E1 component (activity after reconstitution with E2-E3 subcomplex); type: biochemical, E. coli; details: for remaining activity at 3700 µM: 3.7 mM inhibitor; for remaining activity at 500 µM: 15 min, read-out: residual activity of E1; for residual activity of E1: conditions as for fluorescence analysis
# T1 construct: made in house; host or cells: resolved from PDHc expressed in E. coli JRG1342
# T1 sequence (P0AFG8 2-887): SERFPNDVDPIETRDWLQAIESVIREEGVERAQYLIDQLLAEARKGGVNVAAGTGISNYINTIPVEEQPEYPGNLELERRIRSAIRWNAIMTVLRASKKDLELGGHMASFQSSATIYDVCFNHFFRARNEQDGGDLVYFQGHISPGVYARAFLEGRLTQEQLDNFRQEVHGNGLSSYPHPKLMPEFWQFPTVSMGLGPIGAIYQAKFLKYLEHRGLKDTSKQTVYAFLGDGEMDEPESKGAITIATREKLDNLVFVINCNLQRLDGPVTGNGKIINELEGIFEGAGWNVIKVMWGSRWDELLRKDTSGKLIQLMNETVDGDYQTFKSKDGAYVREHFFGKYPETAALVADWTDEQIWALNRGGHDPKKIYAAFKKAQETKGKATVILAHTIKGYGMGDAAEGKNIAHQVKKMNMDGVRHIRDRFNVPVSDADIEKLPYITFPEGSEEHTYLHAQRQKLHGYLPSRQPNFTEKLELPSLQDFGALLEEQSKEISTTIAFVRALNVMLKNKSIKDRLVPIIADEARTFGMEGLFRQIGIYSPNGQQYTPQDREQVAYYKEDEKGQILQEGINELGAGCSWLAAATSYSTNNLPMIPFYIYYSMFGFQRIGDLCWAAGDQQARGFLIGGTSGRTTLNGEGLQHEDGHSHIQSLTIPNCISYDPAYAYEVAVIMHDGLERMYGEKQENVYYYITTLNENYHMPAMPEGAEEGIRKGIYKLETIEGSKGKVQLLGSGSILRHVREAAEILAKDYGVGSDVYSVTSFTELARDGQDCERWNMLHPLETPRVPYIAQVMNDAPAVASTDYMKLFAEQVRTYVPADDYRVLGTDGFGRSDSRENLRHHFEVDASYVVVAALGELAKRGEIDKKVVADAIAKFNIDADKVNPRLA
# Protocol: Resolution of the E1 component from PDHc. […] PDHc was dialyzed against 50 mM Tris buffer, pH 9.0, containing 0.1 mM benzamidine.HCl, 0.15 M NaCl, 0.1 mM PMSF for 2 h, before applying to a column equilibrated and eluted with the same buffer.
# (§1) Activity and related measurements on PDHc. The overall enzymatic reaction of the PDH complex was assayed using a Varian DMS 300 spectrophotometer or the Cobas Bio (Roche Diagnostics, Somerville, N.J.) automated centrifugal analyzer, monitoring the pyruvate-dependent reduction of NAD^+ at 340 nm. The reaction medium contained in 1 mL (DMS 300) or 0.25 mL (Cobas-Bio) test volume: 0.1 M Tris-HCl, pH 8.0; 1 mM MgCl2; 2 mM sodium pyruvate; 2.5 mM NAD^+; 0.052-0.2 mM coenzyme A; 0.2 mM ThDP; and 2.6 mM DTT at 27° C. The reaction was initiated either by adding enzyme to a mixture of all other components, or by adding CoA.
# One unit of activity is defined as the amount of NADH produced (μmol) per min per mg protein. The activity of resolved E1 was measured after reconstitution with excess E2-E3 subcomplex using the NADH assay for PDHc activity.
# Inactivation of 1-lip and 3-lip PDH complexes and resolved E1 component by 2-oxo-3-alkynoic acids. Intact 1-lip or 3-lip PDH complexes (0.050-0.1 mg) or resolved E1 component (0.05-0.09 mg) were incubated in the dark with 5 mM MgCl2, […] of 2-oxo-3-alkynoic acids in 20 mM KH2 PO4 buffer, pH 7.5 at room temperature in a total volume 0.5 mL. The initial activity (100%) was assayed prior to the addition of 2-oxo-3-alkynoic acids. Samples (50 μL) were withdrawn periodically and diluted into 1 mL of assay solution, containing all components necessary for assay of the overall activity. The activity of untreated enzyme was stable during the time of inactivation.
# [2] = Chemical stability of inhibitor on incubation in buffer before inactivation test; type: physicochemical; details: 1 mM, room temperature, 20 mM KH2PO4 pH 7.5, 1 mM ThDP, 5 mM MgCl2, up to 28 min
# Protocol: Kinetics of inactivation of 1-lip and 3-lip PDH complexes and resolved E1 in the presence of 2-oxo-3-alkynoic acids. Three analogs of pyruvate were tested as potential inhibitors of the PDHc and resolved E1: 2-oxo-3-butynoic acid; 2-oxo-3-pentynoic acid; and 2-oxo-3-heptynoic acid. Incubation in the presence of saturating ThDP (1 mM) and MgCl2 (5 mM) with any of the three compounds led to the loss of overall activity in a time- and concentration-dependent fashion. The plots of remaining activity versus time were biphasic: a rapid phase of inactivation was followed either by a slow phase at high concentrations of inhibitor or a plateau at low concentrations of inhibitor, as shown for 1-lip PDHc and resolved E1 with 2-oxo-3-butynoic acid in FIGS. 1A and 1B. The biphasic kinetics may be due to chemical instability of the inhibitors, especially 2-oxo-3-butynoic acid. […] When a fresh portion of 2-oxo-3-butynoicacid was added to PDHc whose activity had plateaued at about 30%, the activity rapidly declined to a new plateau at 6-8% of the original activity. In contrast, the PDHc activity continued to decline at a low rate when fresh 1-lip PDHc was added to the sample that had already declined to 30% (data not shown).
# [3] = molecular target: T2, E2-E3 subcomplex (Escherichia coli, UniProt P06959+P0A9P0); experiment: Preincubation of E2-E3 subcomplex with inhibitor, reconstitution with unmodified E1; type: biochemical, E. coli; details: up to 20 min preincubation, unmodified E1 added
# T2 construct: made in house; host or cells: resolved from PDHc expressed in E. coli JRG1342
# T2 sequence (P0A9P0 2-474): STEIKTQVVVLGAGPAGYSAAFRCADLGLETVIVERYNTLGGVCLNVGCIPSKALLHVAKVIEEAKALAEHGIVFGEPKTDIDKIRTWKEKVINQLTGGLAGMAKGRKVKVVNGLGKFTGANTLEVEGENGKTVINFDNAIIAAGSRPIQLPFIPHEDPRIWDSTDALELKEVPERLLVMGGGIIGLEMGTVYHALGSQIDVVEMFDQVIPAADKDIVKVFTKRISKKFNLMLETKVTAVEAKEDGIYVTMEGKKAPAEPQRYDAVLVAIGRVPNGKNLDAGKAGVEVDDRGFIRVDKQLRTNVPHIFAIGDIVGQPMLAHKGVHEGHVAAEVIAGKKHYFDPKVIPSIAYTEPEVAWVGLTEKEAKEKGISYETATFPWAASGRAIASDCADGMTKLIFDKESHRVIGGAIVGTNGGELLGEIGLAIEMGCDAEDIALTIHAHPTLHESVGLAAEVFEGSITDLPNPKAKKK
# T2 sequence (P06959 whole entry): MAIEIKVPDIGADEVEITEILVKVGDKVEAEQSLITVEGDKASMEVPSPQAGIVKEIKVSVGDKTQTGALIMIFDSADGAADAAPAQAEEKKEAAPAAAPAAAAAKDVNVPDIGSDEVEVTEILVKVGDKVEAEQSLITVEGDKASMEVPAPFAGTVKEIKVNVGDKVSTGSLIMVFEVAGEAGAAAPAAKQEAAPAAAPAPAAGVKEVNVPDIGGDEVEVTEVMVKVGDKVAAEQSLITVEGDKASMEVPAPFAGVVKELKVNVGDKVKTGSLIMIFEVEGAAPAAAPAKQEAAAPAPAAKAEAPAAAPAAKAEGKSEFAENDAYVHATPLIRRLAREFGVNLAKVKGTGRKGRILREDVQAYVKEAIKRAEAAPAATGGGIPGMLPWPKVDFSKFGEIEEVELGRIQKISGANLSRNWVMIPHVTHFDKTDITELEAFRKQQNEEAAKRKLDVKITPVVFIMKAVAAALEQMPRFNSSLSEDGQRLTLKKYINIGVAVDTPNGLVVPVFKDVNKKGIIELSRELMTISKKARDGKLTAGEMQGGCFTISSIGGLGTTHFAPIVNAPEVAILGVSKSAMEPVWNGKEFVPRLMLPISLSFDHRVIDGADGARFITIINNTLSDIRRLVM
# Protocol: as §1
# When the E2-E3 subcomplex was preincubated for different times (up to 20 min) with 2-oxo-3-butynoic acid, followed by dilution into a reaction mixture containing all components of the PDHc assay including unmodified E1 component, 100% of the activity could be reconstituted. In contrast, when resolved E1 was treated with inhibitors for different time periods before reconstitution with unmodified E2-E3 complex, a time-dependent decrease in the overall activity was observed (see FIG. 1B for resolved E1 reacted with 2-oxo-3-butynoic acid).
# [4] = molecular target: T1, resolved E1; experiment: Non-oxidative formation of acetoin and acetolactate by resolved E1; type: biochemical, E. coli
# Protocol: Assay for the non-oxidative formation of acetoin and acetolactate by resolved E1. The reaction mixture contained in 0.8 mL of 50 mM KH2 PO4 buffer, pH 7.5: ThDP (1 mM); MgCl2 (2 mM); pyruvate (2 mM) and resolved E1 (0.04-0.1 mg). After 2 h at 37° C. the reaction was stopped by the addition of either 0.1 mL of 2.5 N NaOH (acetoin assay), or 0.02 mL of 6 N HCl (acetolactate assay), according to Kuwana et al. (1968). Tubes for acetolactate measurement were incubated for an additional 2 h at 37° C. to decarboxylate the acetolactate to acetoin. Acetoin was determined according to Westerfeld (1945). The activity is defined as nmoles of acetoin formed per min per mg protein.
# [5] = E1 treated with 3.7 mM inhibitor, At = 11.5%
# [6] = E1 with 11.5% overall activity remaining
smiles,measurement,setting,value
"C#CC(=O)C(=O)O [2-oxo-3-butynoic acid, 2-Oxo-3-butynoic acid]",residual activity of E1 used for SH titration,[1],10%
same,k for inactivation of E1,[1]; 0.11 mM inhibitor,1.73 min⁻¹
same,inhibition at 500 µM,"[1]; 0.5 mM inhibitor, 20 min, 1 mM ThDP, 5 mM MgCl2",~68%
same,remaining activity at 3700 µM,"[1]; after G-25 chromatography, read-out: residual activity of resolved E1 in the overall reaction (At)",11.5%
same,At after addition of DTT to previously inactivated E1,"[1]; 5 mM DTT added at At = 30%, after 60 min",40%
same,protection of E1 component from modification by pyruvate,"[1]; 5 mM pyruvate, 1 mM ThDP, 5 mM MgCl2",completely protected
same,reactivation of inactivated E1 by hydroxylamine,"[1]; 0.2, 0.5 and 1 M hydroxylamine, neutral pH, 100 min or 15 h",failed to restore activity; also recorded: failure to reactivate
same,remaining activity at 500 µM,"[1]; 0.5 mM inhibitor, absence of DTT",~30%
same,remaining activity at 500 µM,"[1]; 0.5 mM inhibitor, presence of 5 mM DTT",63%
same,remaining activity at 3700 µM,"[1]; E1 1.5 mg/mL, 0.1 mM ThDP, 1 mM MgCl2, read-out: E1 activity remaining before chromatography",16%
same,Pyruvate:NAD+-oxidoreductase reaction,"[1]; E1 treated with 3.7 mM inhibitor, At = 11.5%, after G-25",0.343 ± 0.023 μmol/min/mg protein
same,residual activity of E1,[1]; absence of added ThDP,78-90%
same,residual activity of E1,[1]; presence of ThDP,40%
same,Ki,[1]; dissociation constant for initial reversible complex,8.5 µM
same,kinact,"[1]; rate constant at saturating inhibitor, resolved E1, read-out: ki E1 (converted)",0.0298 s⁻¹
same,kinact/KI,[1]; read-out: ki/Ki E1,3500 M⁻¹ s⁻¹
same,"kapp, slow phase of inactivation","[1]; resolved E1, 0.11 mM inhibitor",0.039 min⁻¹
same,"kapp, slow phase of inactivation","[1]; resolved E1, 1.1 mM inhibitor",0.078 min⁻¹
same,effect of incubating the inhibitor in buffer on its ability to inactivate 1-lip PDHc,[2],no significant effect
same,activity reconstituted after preincubation of E2-E3 subcomplex with inhibitor,[3],100%
same,Acetoin production,[4]; [5],1.52 ± 0.08 nmol/min/mg protein
same,Acetolactate production,[4]; [5],0.51 ± 0.083 nmol/min/mg protein
same,Acetoin production relative to uninhibited E1,[4]; [6],30%
same,Acetolactate production relative to uninhibited E1,[4]; [6],36%
